90 compounds from PubChem BioAssay AID1421 (Emory University Molecular Libraries Screening Center, 2008) can be followed below.

Structures are written as SMILES. Active and inactive are the calls of the source. No rule for the calls is given here.

Chain of Prostaglandin E2 receptor EP2 subtype (Homo sapiens) (P43116 whole entry, looked up): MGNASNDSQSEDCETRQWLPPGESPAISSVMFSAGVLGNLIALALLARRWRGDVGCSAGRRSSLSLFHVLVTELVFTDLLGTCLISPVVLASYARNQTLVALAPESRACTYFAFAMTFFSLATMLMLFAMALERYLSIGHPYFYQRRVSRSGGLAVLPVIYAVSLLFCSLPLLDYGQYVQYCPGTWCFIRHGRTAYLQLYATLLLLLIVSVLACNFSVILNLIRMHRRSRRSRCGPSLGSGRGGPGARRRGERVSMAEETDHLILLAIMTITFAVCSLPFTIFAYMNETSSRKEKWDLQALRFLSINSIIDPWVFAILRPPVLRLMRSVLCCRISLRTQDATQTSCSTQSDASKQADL

The first experiment addresses Prostaglandin E2 receptor EP2 subtype (Homo sapiens) (UniProt P43116). In words: compounds shifting PGE2 potency at EP2 – cell-based, human EP2, PGE2 EC50 shift, dose response (AID 1421). As to conditions: EP2-expressing cells, PGE2 EC50 shift by compound.
As for `FC(F)(F)c1cc(-c2ccccc2)nc2nc(N3CCOCC3)sc12`, the outcome was active.
Still for that read-out and setting: in the case of `COc1cccc2cc(/C(=N/O)c3ccccc3)oc12` it was “active”.
The same measure, in the same setting: the same measure for `CCOC(=O)C(C)Sc1nc(-c2ccccc2)nc2ccccc12` (stereo not given): “active”; for `O=c1c2ccccc2nc2n1C1(CCCCC1)Cc1ccccc1-2`: “active”.
Still for that read-out and setting: the same measure for `CCOC(=O)c1c(NC(=O)c2ccco2)sc2c1CCCCC2`: “active”; for `O=C(O)COc1ccc(/C=C/c2ccc3cccc([N+](=O)[O-])c3n2)cc1`: “active”; for `CCOC(=O)c1c(NC(=O)c2ccoc2C)sc(C)c1C`: “active”.
Consider `CCc1ccc(NC(=S)N(Cc2ccccc2)Cc2ccccn2)cc1`, for which the result was active.
On the same count and under the same terms, the same measure for `O=C(Nc1cc(C(F)(F)F)ccc1-n1cncn1)c1ccc(-c2ccccc2)cc1`: “active”.
On the same count and under the same terms, in the case of `Cc1nn2c(c1-c1ccccc1)N=C(c1ccco1)CC2c1ccccc1` (stereo not given) it was “active”.

Still in this experiment, the particulars now being: EP2-expressing cells, PGE2 EC50 shift by compound; measured here: PGE2 EC50 at 6.7 uM compound.
`O=C(O)/C=C/C(O)c1ccc(Cl)cc1` (stereo not given): the PGE2 EC50 with compound amounted to 0.97 nM.
The same measure, in the same setting: in the case of `FC(F)(F)c1cc(-c2ccccc2)nc2nc(N3CCOCC3)sc12` it was 1.68 nM; in that of `Cc1ccc2c(c1)N(Cc1cccc(Cl)c1)C(=O)c1cccnc1O2`, 0.95 nM; in that of `Clc1ccc(Cl)c(-c2ccc(/C=N/c3ncn[nH]3)o2)c1`, 1.34 nM.
On the same count and under the same terms, in the case of `COc1cccc2cc(/C(=N/O)c3ccccc3)oc12` it was 1.51 nM; in that of `COC(=O)CSc1nc2c(c(C3CC=CCC3)c1C#N)CCC2` (stereo not given), 1.26 nM.
Still for that read-out and setting: in the case of `COc1cccc2[nH]c3c(N4CC(C)CC(C)C4)ncnc3c12` (stereo not given) it was 1.15 nM; in that of `CCN=C1S/C(=C\c2ccc(O)c(OCC)c2)C(=O)N1CC`, 0.81 nM; in that of `CCOC(=O)C(C)Sc1nc(-c2ccccc2)nc2ccccc12` (stereo not given), 0.92 nM.
Consider `C=CCC(NCc1ccccc1)c1ccc(Cl)cc1` (stereo not given), for which the PGE2 EC50 with compound amounted to 1.14 nM.
Still for that read-out and setting: in the case of `Brc1cccc(-c2nnc(SCc3ccon3)n2-c2ccccc2)c1` it was 1.06 nM.
In the case of `O=C(CC(Sc1ccccc1)c1cccs1)c1ccco1` (stereo not given), the PGE2 EC50 with compound came to 0.88 nM.
The same measure, in the same setting: the same measure for `Clc1ccccc1Cn1c(/C=C/c2ccco2)nc2ccccc21`: 0.99 nM; for `Cc1cccc(Cn2c(N3CCN(c4ccccc4)CC3)nc3c2c(=O)n(C)c(=O)n3C)c1`: 0.94 nM.
For the compound `O=c1c2ccccc2nc2n1C1(CCCCC1)Cc1ccccc1-2`, the PGE2 EC50 with compound is 0.95 nM.
For `CCC1CCc2c(sc3ncnc(N4CCOCC4)c23)C1` (stereo not given), the PGE2 EC50 with compound is 0.81 nM.
`CC(C)CCn1c(O)c(N=NC(=O)c2ccco2)c2ccccc21`: the PGE2 EC50 with compound was 1.03 nM.
Still for that read-out and setting: the same measure for `CCOC(=O)c1c(NC(=O)c2ccco2)sc2c1CCCCC2`: 0.87 nM.
As for `N#CC1=C(S)N(c2ccccc2)C2(CCCCC2)NC1=O`, the PGE2 EC50 with compound worked out at 1.12 nM.
Still for that read-out and setting: in the case of `Nc1ccc(Br)cc1C(=O)c1ccccc1` it was 0.43 nM; in that of `Cc1sc2ncnc(N(C)Cc3cccs3)c2c1C`, 2.57 nM; in that of `CCC(Sc1nc(-c2ccccc2)c(C#N)c(=O)[nH]1)C(=O)Nc1cc(C)on1` (stereo not given), 1.38 nM.
For `Cc1cc([N+](=O)[O-])c(C)c(Br)c1C`, the PGE2 EC50 with compound amounted to 1.11 nM.
Still for that read-out and setting: the same measure for `Cc1ccc(S(=O)(=O)Nc2ccc(Cl)cc2C(=O)c2ccc(F)cc2)cc1`: 0.97 nM; for `Cc1ccc(C)n1-n1cnc2scc(-c3cccs3)c2c1=O`: 0.97 nM.
Still for that read-out and setting: in the case of `Cc1ccc2c3c(cccc13)-c1ccccc1C2=O` it was 0.86 nM.
Still for that read-out and setting: in the case of `CCOC(=O)c1c(-c2ccc(-c3ccccc3)cc2)csc1NC(=O)CCN1CCOCC1` it was 1.34 nM.
As for `O=S(=O)(c1ccccc1)c1nc(-c2ccco2)oc1N1CCCCCC1`, the PGE2 EC50 with compound is 1.21 nM.
Turning to `Cc1ccc(S(=O)(=O)NCC(=O)N(c2ccccc2)C(C(=O)NCc2ccccc2)c2ccco2)cc1` (stereo not given), the PGE2 EC50 with compound was 1 nM.
Same read-out and setting: the same measure for `CCOC(=O)c1sc(NC(=O)CN2C(=O)c3cccc4cccc(c34)C2=O)nc1C`: 1.37 nM; for `O=C(CSc1nnc(-c2cc3ccccc3cc2O)n1Cc1ccco1)c1ccc(F)cc1`: 1.35 nM; for `CCCCN1C(=O)/C(=C2\SC(N3CCCCC3)=NC2=O)c2ccccc21`: 1.26 nM.
On the same count and under the same terms, the same measure for `CCC(=O)N(CC)c1nc(-c2cc(OC)ccc2OC)cs1`: 1.09 nM; for `O=C(O)COc1ccc(/C=C/c2ccc3cccc([N+](=O)[O-])c3n2)cc1`: 2.11 nM; for `O=C(c1cc(-c2ccccn2)nc2ccc(Br)cc12)N1CCc2ccccc2C1`: 1.06 nM.
On the same count and under the same terms, in the case of `Cc1ccc(Oc2nc(-c3ccccc3)ncc2S(C)(=O)=O)cc1` it was 1.12 nM.
`COc1ccc(N=N/C(=C\O)C(=O)c2cccs2)cc1`: the PGE2 EC50 with compound is 1.42 nM.
Take `COc1ccccc1C1c2[nH]c3ccccc3c2CCN1Cc1cnc(C)s1` (stereo not given): the PGE2 EC50 with compound was found to be 1.59 nM.
The same measure, in the same setting: in the case of `COc1ccccc1N(C(=O)NCc1ccccc1)C1=NCC(C)S1` (stereo not given) it was 1.58 nM; in that of `O=c1cc(N2CCCCC2)c(-c2ccccc2)nn1Cc1c(Cl)cccc1Cl`, 0.71 nM; in that of `CCCCn1c(-c2csc3c2CCCC3)n[nH]c1=S`, 1.25 nM.
In the case of `CN(CC(=O)Nc1ccccc1Oc1ccccc1)Cc1ccccc1F`, the PGE2 EC50 with compound was 2.47 nM.
The same measure, in the same setting: in the case of `COc1ccccc1NC(=O)CSc1nnc(Cn2nnc(-c3ccccc3)n2)n1-c1ccccc1` it was 0.55 nM; in that of `Cc1nc(NC(C)c2ccccc2)c2c3c(sc2n1)CCC3` (stereo not given), 0.78 nM.
On the same count and under the same terms, the same measure for `Cc1ccc(NP(=O)(Oc2ccccc2F)Oc2ccccc2F)cc1C`: 1.35 nM; for `Cc1cccc2cc(CN(Cc3cccs3)C3(c4nnnn4C4CCCC4)CCCC3)c(=O)[nH]c12`: 1.08 nM.
Same read-out and setting: in the case of `COc1ccc(-n2c(-c3ccccc3)nnc2-c2ccc(Cl)cc2)cc1` it was 1.23 nM.
Regarding `Cc1cc(-c2ccccc2)nc2cc(C(=O)N(Cc3ccccc3)Cc3ccccc3)nn12`, the PGE2 EC50 with compound is 1.03 nM.
In the case of `O=c1cc(N2CCCCC2)c(-c2ccccc2)nn1Cc1ccccc1Cl`, the PGE2 EC50 with compound came to 0.65 nM.
On the same count and under the same terms, in the case of `COc1ccc(C2CC(C(F)(F)F)n3nc(C(N)=O)c(Cl)c3N2)cc1OC` (stereo not given) it was 0.71 nM.
Same read-out and setting: the same measure for `COc1ccc(C(=O)/C(=C/O)N=Nc2ccc(F)cc2)cc1`: 1 nM.
For `Cc1ccccc1N=C1SCC(=O)N1Cc1ccccc1`, the PGE2 EC50 with compound was 1.2 nM.
Still for that read-out and setting: in the case of `Cc1ccccc1Cn1c(-c2cncs2)nc2ccccc21` it was 2.57 nM; in that of `O=C(c1ccccc1)C1CN(Cc2ccccc2)CCC1(O)c1ccccc1` (stereo not given), 2.61 nM; in that of `CCOC(=O)c1c(NC(=O)c2ccoc2C)sc(C)c1C`, 0.94 nM.
The same measure, in the same setting: in the case of `O=c1nc(-c2ccccc2)cc(-c2ccccc2)[nH]1` it was 2.21 nM; in that of `Cc1ccccc1Cn1c2ccccc2c2cn[nH]c(=O)c21`, 1.15 nM.
On the same count and under the same terms, in the case of `Cc1ccc(N=Cc2cc(Cc3ccccc3Cl)cc([N+](=O)[O-])c2O)c(O)c1` it was 0.6 nM; in that of `Cc1cc(=O)oc(C)c1C(=O)OC(C(=O)c1ccccc1)c1ccccc1` (stereo not given), 1.57 nM.
As to `Clc1ccc(Cl)c(Nc2ccnc(SCc3ccccc3)n2)c1`, the PGE2 EC50 with compound amounted to 0.64 nM.
Still for that read-out and setting: in the case of `FC(F)(F)c1nnc(-c2ccccc2)nc1Sc1ccccc1` it was 0.91 nM; in that of `CCc1ccc(NC(=S)N(Cc2ccccc2)Cc2ccccn2)cc1`, 2.7 nM.
On to `Cc1cccc(C(=O)Nc2cccc(OCC(=O)O)c2)c1`, for which the PGE2 EC50 with compound stood at 6.72 nM.
For `CCOc1ccc(-c2nn3c(-c4ccccc4)nnc3s2)cc1`, the PGE2 EC50 with compound is 1.04 nM.
For `COc1ccc(Nc2nc(-c3cc4cccc(OC)c4oc3=O)cs2)cc1`, the PGE2 EC50 with compound was 1.29 nM.
On the same count and under the same terms, the same measure for `CCOc1ccccc1NC(=O)c1c(Br)cnn1C`: 1.08 nM; for `COC(=O)c1c(NC(NC(=O)C(C)C)C(Cl)(Cl)Cl)sc2c1CCCC2` (stereo not given): 1 nM; for `Cc1cccc2cc(CN(Cc3cccs3)C(c3nnnn3C3CCCC3)C(C)C)c(=O)[nH]c12` (stereo not given): 0.99 nM.
The same measure, in the same setting: in the case of `C=C(C)Cn1c(C)cc(C)c(S(=O)(=O)c2cccc(C)c2)c1=O` it was 1.28 nM; in that of `COc1ccc(C(=O)Nc2cc(C)nn2-c2nc3ccccc3[nH]2)c(OC)c1`, 0.91 nM; in that of `O=C(Nc1cc(C(F)(F)F)ccc1-n1cncn1)c1ccc(-c2ccccc2)cc1`, 1.15 nM.
The same measure, in the same setting: in the case of `Cc1cc(C)c(C#N)c(Oc2ccccc2Br)n1` it was 1.01 nM; in that of `Cc1sc(NC(=O)CN2CCOCC2)c(C(=O)c2ccccc2)c1C`, 1.18 nM.
In the case of `O=C(Cc1ccc(Cl)cc1)Nc1ccccc1Sc1ccccc1`, the PGE2 EC50 with compound worked out at 1.07 nM.
The same measure, in the same setting: the same measure for `CCn1nnnc1SCC(=O)Nc1cccc(C)n1`: 1.44 nM; for `COc1cc(S(=O)(=O)N(Cc2cccnc2)Cc2ccco2)ccc1-n1cnnn1`: 1.45 nM.
Take `Cc1nn2c(c1-c1ccccc1)N=C(c1ccco1)CC2c1ccccc1` (stereo not given): the PGE2 EC50 with compound was found to be 0.8 nM.
Still for that read-out and setting: the same measure for `Cc1ccc(-c2csc(N(CC3CCCO3)C(=O)c3ccco3)n2)cc1` (stereo not given): 0.87 nM; for `Nc1cccc(OCc2nc(N)nc(N)c2-c2ccc(Cl)cc2)c1`: 1.24 nM.
Still for that read-out and setting: the same measure for `CC(C)Oc1ccc(Cc2n[nH]c(=S)n2Cc2ccccc2)cc1Cl`: 1.25 nM; for `C=CCc1cccc(C=Nc2cc(Br)ccc2O)c1O`: 0.89 nM; for `Cc1oncc1-c1csc(-c2ccccc2Cl)n1`: 1 nM.
On the same count and under the same terms, the same measure for `COc1ccc(-c2noc(-c3ccccc3C(=O)Nc3cccnc3)n2)cc1`: 1.02 nM; for `CC(=O)N1N=C2/C(=C/c3ccccc3)CCCC2C1c1ccccc1` (stereo not given): 1.25 nM; for `O=c1c2ccccc2nc(N2CCCC2)n1-c1ccc(Cl)cc1`: 2.64 nM.
As for `CNc1oc(-c2ccc(Cl)cc2)nc1P(=O)(c1ccccc1)c1ccccc1`, the PGE2 EC50 with compound was found to be 0.76 nM.
Turning to `CCOC(=O)c1sc2nccc(N(C)C)c2c1N=CNOCc1ccccc1`, the PGE2 EC50 with compound was 1.25 nM.
Same read-out and setting: the same measure for `Cc1cc(C)c(S(=O)(=O)c2ccccc2)c(OC(=O)c2c(Cl)cc(Cl)cc2Cl)n1`: 1.27 nM; for `CCN(CC)S(=O)(=O)c1c(OC)cc(C)c(Cl)c1C`: 2.56 nM.
With `O=P(c1ccccc1)(c1ccccc1)c1nc(-c2ccccc2)oc1NCc1ccccc1`, the PGE2 EC50 with compound came to 0.33 nM.
